Like-named read-outs stand apart in the source and are kept apart here.
Experiments:
[1] = stress-induced erosion test (Senay and Levine), anti-ulcer activity; assay type: in vivo
Experimental: Anti-ulcer activity was determined by the stress-induced erosion test of Senay and Levine, Proc. Soc. Exp. Biol. Med., 124, 1221-3 (1967).

H^+ /K^+ ATPase = target: T1, H^+ /K^+ ATPase (Oryctolagus cuniculus, UniProt P27112); assay: inhibition of 14C-aminopyrine accumulation in rabbit isolated gastric glands stimulated by DBcAMP or high K+ (H+/K+ ATPase inhibition); assay type: cell-based; conditions: 10^-4 M, 14C-aminopyrine uptake
T1 construct: Rabbit gastric glands are isolated from gastric mucosa from the corpus region of the stomach; from tissue; host or cells: isolated gastric glands from rabbit gastric mucosa, corpus region of the stomach
Experimental: Compounds of formula I were also tested for anti-secretory activity by their ability to inhibit the highly specific proton transporting enzyme H^+ /K^+ ATPase.
Potential H^+ /K^+ ATPase inhibitors are evaluated by a technique involving the measurement of aminopyrine accumulation in rabbit isolated gastric glands. Aminopyrine, which is a weak base, accumulates in acid-secreting cells; therefore, uptake of aminopyrine is increased by secretagogues and an inhibitor of acid secretion will reduce the response to one or more secretagogues depending upon its site of action. Compounds which reduce the response to dibutyryl cyclic adenosine monophosphate (DBcAMP) stimulation are assumed to have an intracellular site of action, and those which reduce the response to both DBcAMP and high potassium ion concentration (K^+) are thought to have an intracellular site of action at the secretory surface of the parietal cell, involving the highly specific proton - transporting enzyme, H^+ /K^+ ATPase. The following test procedure is used:
Rabbit gastric glands are isolated from gastric mucosa from the corpus region of the stomach by a method based on one described by Berglindh T., Obrink K. J., Acta Physiol. Scand. 96, 150-159 (1976). Measurement of aminopyrine uptake is carried out using a modification of the method described by Berglindh T., Hellander H. F., Obrink K. J. (ibid, 97, 401-414, 1976).
Compounds are tested at a concentration of 10^-4 M, initially, and in some cases at lower concentrations, for their ability to inhibit ^14 C-aminopyrine uptake in gastric glands, stimulated by DBcAMP and high K^+ respectively. Results are expressed as the % inhibition of the maximum response to the secretagogue induced by the test compound. An inhibitor of H^+ /K^+ ATPase would be expected to reduce the response to both secretagogues.

[2] = anti-secretory test of Shay et al (as exemplified by Beattie et al); assay type: in vivo; conditions: read-out: Anti-Secretory (Shay et al) % Change in volume
[3] = DBcAMP stimulation, read-out: % Inhibition to Stimulation by DBcAMP at 10^-4
[4] = high K+ stimulation, read-out: % Inhibition to Stimulation by K^+ at 10^-4

T1 sequence (P27112 whole entry): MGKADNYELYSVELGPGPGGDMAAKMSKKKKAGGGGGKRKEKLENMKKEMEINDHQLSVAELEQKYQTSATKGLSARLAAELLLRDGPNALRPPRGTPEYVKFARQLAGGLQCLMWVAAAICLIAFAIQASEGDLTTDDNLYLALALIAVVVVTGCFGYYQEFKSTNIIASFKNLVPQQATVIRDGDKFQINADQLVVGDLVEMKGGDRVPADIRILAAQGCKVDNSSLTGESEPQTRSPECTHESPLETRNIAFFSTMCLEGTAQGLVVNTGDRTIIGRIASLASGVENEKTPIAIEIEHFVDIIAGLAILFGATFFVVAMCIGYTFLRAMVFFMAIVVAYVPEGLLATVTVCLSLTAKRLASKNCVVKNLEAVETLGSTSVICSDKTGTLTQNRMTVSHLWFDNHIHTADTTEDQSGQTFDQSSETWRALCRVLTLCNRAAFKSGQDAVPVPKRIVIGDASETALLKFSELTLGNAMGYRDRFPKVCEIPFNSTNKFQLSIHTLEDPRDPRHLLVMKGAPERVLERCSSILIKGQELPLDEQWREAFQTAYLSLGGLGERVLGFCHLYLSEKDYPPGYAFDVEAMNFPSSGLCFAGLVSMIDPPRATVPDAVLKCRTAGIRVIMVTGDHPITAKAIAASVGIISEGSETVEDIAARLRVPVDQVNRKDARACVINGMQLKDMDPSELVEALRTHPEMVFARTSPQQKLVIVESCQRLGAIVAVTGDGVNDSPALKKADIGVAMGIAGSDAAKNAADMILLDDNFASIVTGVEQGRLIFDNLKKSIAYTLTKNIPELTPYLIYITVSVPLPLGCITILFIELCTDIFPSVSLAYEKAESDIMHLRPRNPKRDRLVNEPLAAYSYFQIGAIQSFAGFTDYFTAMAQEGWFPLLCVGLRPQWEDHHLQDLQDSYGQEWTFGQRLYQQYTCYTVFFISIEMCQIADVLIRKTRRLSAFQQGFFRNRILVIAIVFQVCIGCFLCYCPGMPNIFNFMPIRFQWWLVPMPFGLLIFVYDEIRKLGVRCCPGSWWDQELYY
T1 sequence (P18597 whole entry partner): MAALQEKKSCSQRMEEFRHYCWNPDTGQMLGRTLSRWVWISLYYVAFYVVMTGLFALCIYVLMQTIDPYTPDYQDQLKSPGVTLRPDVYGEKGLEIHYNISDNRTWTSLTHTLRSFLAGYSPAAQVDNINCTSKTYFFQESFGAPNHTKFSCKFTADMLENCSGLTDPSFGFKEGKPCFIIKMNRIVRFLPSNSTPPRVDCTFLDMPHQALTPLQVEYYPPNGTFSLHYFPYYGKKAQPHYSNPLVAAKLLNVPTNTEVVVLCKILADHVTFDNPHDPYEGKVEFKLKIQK

## c1ccc(CSc2nc3cccc4c3n2CCC4)nc1 [Example 1, 5,6-Dihydro-2-(2-pyridylmethylthio)-4H-imidazo-[4,5,1-ij]-quinoline]
[1]
  inhibition in vivo at 100 mg/kg: 69%
H^+ /K^+ ATPase; [3]
  inhibition at 100 µM: 34%

## [O-][S+](Cc1ccccn1)c1nc2cccc3c2n1CCC3 (stereo not drawn) [Example 2, 2-(2-Pyridylmethylsulphinyl)-5,6-dihydro-4H-imidazo-[4,5,1-ij]quinoline]
[1]
  inhibition in vivo at 100 mg/kg: 60%
H^+ /K^+ ATPase; [3]
  inhibition at 100 µM: 97%
H^+ /K^+ ATPase; [4]
  inhibition at 100 µM: 65%

## Cc1cccnc1CSc1nc2cccc3c2n1CCC3 [Example 3, 5,6-Dihydro-2-(2-(3-methylpyridyl)methylthio)-4-[H]-imidazo-[4,5,1-ij]quinoline]
[1]
  inhibition in vivo at 100 mg/kg: 68%
H^+ /K^+ ATPase; [4]
  inhibition at 100 µM: -109%

## C1=Cc2cccc3nc(SCc4ccccn4)n(c23)C1 [Example 4, 2-(2-Pyridylmethylthio)-4[H]-imidazo-[4,5,1-ij]quinoline]
H^+ /K^+ ATPase; [3]
  inhibition at 100 µM: 16.7%
H^+ /K^+ ATPase; [4]
  inhibition at 100 µM: 35.5%

## Cc1cccnc1C[S+]([O-])c1nc2cccc3c2n1CCC3 (stereo not drawn) [Example 5, 5,6-Dihydro-2-(2-(3-methylpyridyl)methylsulphinyl)-[4H]-imidazo-[4,5,1-ij]quinoline]
H^+ /K^+ ATPase; [3]
  inhibition at 100 µM: 66%

## c1ccc(-c2cccc(CSc3nc4cccc5c4n3CCC5)n2)cc1 [Example 6, 5,6-Dihydro-2-(2-(6-phenylpyridyl)methylthio)-[4H]-imidazo-[4,5,1-ij]quinoline]
[1]
  inhibition in vivo at 100 mg/kg: 58%
H^+ /K^+ ATPase; [3]
  inhibition at 100 µM: 36%
H^+ /K^+ ATPase; [4]
  inhibition at 100 µM: 182%

## Cc1cnc(CSc2nc3cccc4c3n2CCC4)c(C)c1 [Example 7, 5,6-Dihydro-2-(2-(3,5-dimethylpyridyl)methylthio)-[4H]-imidazo-[4,5,1-ij]quinoline]
H^+ /K^+ ATPase; [3]
  inhibition at 100 µM: 70%
H^+ /K^+ ATPase; [4]
  inhibition at 100 µM: 74%

## Cc1cnc(C[S+]([O-])c2nc3cccc4c3n2CCC4)c(C)c1 (stereo not drawn) [Example 8]
H^+ /K^+ ATPase; [3]
  inhibition at 100 µM: 48%

## c1ccc(-c2nc(CSc3nc4cccc5c4n3CCC5)cs2)cc1 [Example 9, 5,6-Dihydro-2-[(2-phenylthiazol-4-yl)methylthio]-4H-imidazo[4,5,1-ij]quinoline]
H^+ /K^+ ATPase; [3]
  inhibition at 100 µM: 75%
H^+ /K^+ ATPase; [4]
  inhibition at 100 µM: 122%

## COc1cc2c3c(c1)nc(SCc1cccc(-c4ccccc4)n1)n3CCC2 [Example 10B, 5,6-Dihydro-8-methoxy-2-[(6-phenylpyridin-2-yl)-methylthio]-4H-imidazo[4,5,1-ij]quinoline]
H^+ /K^+ ATPase; [3]
  inhibition at 100 µM: 98%
H^+ /K^+ ATPase; [4]
  inhibition at 100 µM: 136%

## c1ccc2nc(CSc3nc4cccc5c4n3CCC5)ccc2c1 [Example 11, 5,6-dihydro-2-(quinolin-2-ylmethylthio)-4H-imidazo[4,5,1-ij]quinoline]
[2]
  change in vivo at 30 mg/kg: 22%
H^+ /K^+ ATPase; [3]
  inhibition at 100 µM: 62%
H^+ /K^+ ATPase; [4]
  inhibition at 100 µM: 147%

## COc1cc2c3c(c1)nc(SCc1ccc4ccccc4n1)n3CCC2 [Example 19, 5,6-Dihydro-8-methoxy-2-(quinolin-2-ylmethylthio)-4H-imidazo-[4,5,1-ij]quinoline]
H^+ /K^+ ATPase; [3]
  inhibition at 100 µM: 70%
H^+ /K^+ ATPase; [4]
  inhibition at 100 µM: 124%

## COc1cc2c3c(c1)nc(SCc1ccncc1)n3CCC2 [Example 20, 5,6-Dihydro-8-methoxy-2-(4-pyridylmethylthio)-4H-imidazo[4,5,1-ij]quinoline]
H^+ /K^+ ATPase; [3]
  inhibition at 100 µM: 68%

## c1cc2c3c(c1)nc(SCc1ccncc1)n3CCC2 [Example 21, 5,6-Dihydro-2-(4-pyridylmethylthio)-4H-imidazo[4,5,1-ij]-quinoline]
H^+ /K^+ ATPase; [3]
  inhibition at 100 µM: 66%
